Test results as given in paper doi:10.1101/2021.06.08.447613v1 (biorxiv, 2021).

Molecular target: M^Pro (SARS-CoV-2 main protease) (Severe acute respiratory syndrome coronavirus 2, UniProt P0DTD1)
Experiment: fluorogenic peptide substrate cleavage, […] min preincubation
Assay type: biochemical
Conditions: pH 7.6, 37 °C, 50 nM enzyme, 10 μM substrate

CCN(CC)CCCC(C)Nc1ccnc2cc(Cl)ccc12 (stereo not shown) [chloroquine]
% activity retained at 16 μM: 84%
